The series is described as follows: physchem. The settings on record: pH 6.
Substance H-RYNSTAATNEVSEVTVFSKSPVT-OH registered a solubility of more than 2000 µg/mL.

H-TFPKKIQMLARDFLDEY-OH had a solubility of more than 2000 µg/mL. Substance H-SERYIGTEGGGMDQSILFLAEEGTAK-OH had a solubility of less than 2000 µg/mL.

For the substance H-DASDFLPDTQLFPHFTELLLPLDPLEGSSV-OH, the solubility was more than 2000 µg/mL.

For H-DHVSIILLSATIPNALEFADWIG-OH, the solubility was less than 2000 µg/mL.

Substance H-DPDVGVNSLQQYYLSPDLHFSLI-OH gave a solubility of less than 2000 µg/mL. The same measure for H-AAAFPSQRTSWEFLQSLVSIKQEKPA-OH: less than 2000 µg/mL. The same measure for H-LLTDRNTSGTTFTLLGVSDYPELQVPLFLVFLA-OH: more than 2000 µg/mL; for H-HRPRPFSPGKQVSSAPLFMLDLYN-OH: more than 2000 µg/mL; for H-TTVTHERKQAKVVNPPIQEVGKGARK-OH: more than 2000 µg/mL.

Turning to H-EDSDKLFESKAELADHQKF-OH, the solubility is more than 2000 µg/mL. H-IAMGFPQKDLKAYTGTIL-OH: the solubility is more than 2000 µg/mL.

With H-SGQPAPEETVLFLGLLHGLLLILRRLRGG-OH, the solubility is less than 2000 µg/mL. In turn, H-SVLREDLGQLEYKYQYAYFRMGIKHPD-OH displayed a solubility of less than 2000 µg/mL. H-GSYLVALGAHTGEES-OH returned a solubility of more than 2000 µg/mL.

As for H-SGARIGAPPPHATATSSSSFMPGTWGREDL-OH, the solubility was more than 2000 µg/mL. Regarding H-PAHPSQGAVPPSRAAAEPHLKPSPSELQTA-OH, the solubility is more than 2000 µg/mL. Take H-LPVFIGNIAVNHAPVSLRPGLGLPPGAPPGTVP-OH: the solubility is more than 2000 µg/mL. As to H-PGGDSGELITDAHELGVAHPPGY-OH, the solubility is more than 2000 µg/mL.

Substance H-STLPVISDSTTKRRWSALVIGL-OH showed a solubility of more than 2000 µg/mL. H-SDAFSGLTALPQSILLFGP-OH had a solubility of more than 2000 µg/mL. In turn, H-SHLASLKNNVSPVLRSHSFSDPSPKFA-OH gave a solubility of more than 2000 µg/mL. In the case of H-AIISSLFVSYFLYR-OH, the solubility is less than 2000 µg/mL.

With H-GHQKLPGKIHLFEAEFTQVAKKEPDG-OH, the solubility is more than 2000 µg/mL. The same measure for H-VSGLEQLESIINFEKL-OH: more than 2000 µg/mL; for H-TKDRDLLVVAHDLIWKMSPRTGDAKPS-OH: more than 2000 µg/mL. The substance H-GSTLSPVPWLPSEEFTLWSSLSPPG-OH had a solubility of more than 2000 µg/mL.

As to H-ISSLFVSYFLYRVVFHFE-OH, the solubility is less than 2000 µg/mL. The same measure for H-FAKGFRESDLNSWPVAPRPLLSV-OH: more than 2000 µg/mL.

The substance H-VDKNGRRRLVYLVENPGG-OH had a solubility of more than 2000 µg/mL. The substance H-GLEQLESIINFEKL-OH displayed a solubility of more than 2000 µg/mL. The value for H-GTKALQLHSIAGRWPRMEPWVVESMSLGVP-OH was more than 2000 µg/mL; that for H-IGALNPKRAAFFAEHYESWE-OH was less than 2000 µg/mL. The value for H-YRMYQKGQETSTNLIASIFA-OH was less than 2000 µg/mL; that for H-DLSYVSDQNGGVPDQILLHLRPTED-OH was more than 2000 µg/mL. The value for H-AASAAAFPSQRTSWEFLQSLVSIKQEK-OH was more than 2000 µg/mL; that for H-LVGQLKRVPRTGRVYRNVQRPESVS-OH was more than 2000 µg/mL; that for H-ALSLTPGLRIGPSGLFLVFLAESAVDKGHPNRS-OH was more than 2000 µg/mL. For H-SHHTHSYQRYSHPLFLPGHRLDPPI-OH, the solubility was more than 2000 µg/mL.

H-SHQIHSYQLYTHPLLHPWDHRD-OH: the solubility is more than 2000 µg/mL. In turn, H-DPLMTCSEPERLTEILFQRAELE-OH came in with a solubility of less than 2000 µg/mL.

H-RARQILIASHLPFYELRHNQVES-OH came in with a solubility of more than 2000 µg/mL.

Consider H-FPVVQSTEDVFPQGLPNEYAFVT-OH, for which the solubility was more than 2000 µg/mL. Turning to H-LSPREEFLRLCKKIMMRSIQ-OH, the solubility is more than 2000 µg/mL.

Consider H-VEQGHVRVGPDVVTHPAFLV-OH, for which the solubility was more than 2000 µg/mL.

H-DGAWPVLLDKFVEWYKDKQMS-OH registered a solubility of more than 2000 µg/mL.

H-YFDVVERSTEKIVDTSLIFNI-OH showed a solubility of less than 2000 µg/mL.

H-AQRKLYQDVMHENFTNLLSVGHQP-OH returned a solubility of more than 2000 µg/mL.

In the case of H-AHRQGEKQHLLPVFSRLALRLPWRHSVQL-OH, the solubility was more than 2000 µg/mL.

The solubility is how much of the substance goes into solution per volume. Higher therefore signals a readily soluble substance.
